Broadly, the pIC50 is the negative decadic logarithm of the IC50, by convention in mol/L. Read a low pIC50 as a large IC50.

Type in all cases: cell-based
Test [1] relates to K562. In words: Cancer cell proliferation inhibition, CCK-8, 72 hours. The note with it: Homo sapiens, K562, 72 h. On the procedure:
(§1) MTS assay was performed to evaluate the cancer cell proliferation inhibition (cancer cell apoptosis) effect of the compounds of examples of the present invention. Particularly, the assay was performed using the cancer cell lines GIST-T1, GIST-T1/816, GIST-430, GIST-430/654, GIST-R1, GIST-R3, M-NFS-60, RetParental (Ba/F3), Retwt (Ba/F3), RetV804M (Ba/F3), RET (LC2/ad-CDC6), FYN (MCP-1), FYN (FN), MDA-MB-231, Huh7, K562, T315I(Ba/F3), SK-MEL-28 and A375. Cell culture was performed using a medium suitable for each cell line.
(§2) In the meantime, MDA-MB-231 and A375 cells were seeded in a 96well plate at the density of 2×10^3/100 μl/well, which stood for a day for attachment. The culture fluid was eliminated. After removing the culture medium, the medium was replaced with the culture medium containing the compounds of the present invention at 3-times serially diluted 9 concentrations (0.0015-10 μM) and the DMSO control, followed by incubation in a 37° C. CO2 incubator for 72 hours. On the other hand, K-562 and Ba/F3-T315I cells were seeded in a 96-well plate at the density of 1×10^4/90 μl/well. The plate containing K-562 cells was added with the culture medium containing the compounds of the present invention at 3-times serially diluted 9 concentrations (0.015-100 μM) and the DMSO control (10 μl/well). The plate containing Ba/F3-T315I cells was added with the culture medium containing the compounds of the present invention at 5-times serially diluted 9 concentrations (0.000256-100 μM) and the DMSO control (10 μl/well). The final concentration was made 0-10 μM and then the cells were cultured in a 37° C. CO2 incubator for 72 hours.
(§3) A375, K-562 and Ba/F3-T315I cells were added with CCK-8 solution at the concentration of 10 μl/well, followed by orbital shaking for 30 seconds. Then, the cells were cultured in a 37° C. CO2 incubator for 2 hours. OD450 was measured by using a microplate reader. The OD value of the well treated with the culture medium and CCK-8 solution alone was subtracted from the OD value measured above, followed by calculation of IC50 using GraphPad Prism 6 software.

The target in test [2] is T1, T315I (Ba/F3) (Homo sapiens, UniProt P00519, T315I, cells depend on it).
T1 construct: fused on or other part: P11274 (Breakpoint cluster region protein)
The test is described as above. The note with it: read-out: T315I (Ba/F3) IC50. On the procedure:
as §1, §2, §3

The subject of test [3] is M-NFS-60. The description is as above. On the procedure:
as §1
M-NFS-60 cell line was cultured in the complete growth medium prepared by adding 10% FBS, 0.05 mM 2-mercaptoethanol and 62 ng of human M-CSF to RPMI. When the confluence reached 80% in T-75 flask, the cells were collected in a 50 ml tube for seeding, followed by centrifugation at 800 rpm for 5 minutes. The cells were suspended in 10 mL of growth medium. The cell number was counted by using a hematocytometer to determine the necessary cell number and the medium volume for seeding. The cells were seeded in a 96-well plate at the density of 20000 cells/well (200 μL/well), followed by stabilization in a 37° C. CO2 incubator, while the compounds of the present invention were prepared. The compounds of the present invention were serially diluted with DMSO at the ratio of 1/3 with setting the maximum concentration at 1968 nM, which were loaded in a new V-bottom 96-well plate, resulting in the preparation of total 11 concentrations including the DMSO control. The cells that had been placed in the incubator were taken out, to which the compounds of the present invention were added (2 μl/well). The plate treated with the compounds was cultured in a 37° C. CO2 incubator for 72 hours. 72 hours later, the plate treated with the compounds was taken out, to which CCK-8 solution was treated (20 μl/well). After well mixing, the plate was further cultured in a 37° C. CO2 incubator for 2 hours. Then, OD450 was measured by using a microplate reader. To obtain accurate results, the wells displaying bubbles were eliminated from the measurement.

Test [4] has as its system Huh7. In words: Cancer cell proliferation inhibition, MTS assay, 72 hours. The conditions noted are these: Homo sapiens, Huh-7. On the procedure: as §1
(§4) Other cell lines were seeded in a 96-well plate containing the corresponding medium appropriate for each cell line at the density of 3,000 cells/well, followed by culture in a 5% CO2 and 37° C. incubator for 24 hours. The compounds of examples of the present invention were added to each well at the concentration of from the highest volume of 50 μM to every step of serial dilution. The solvent control, dimethylsulfoxide (DMSO), was treated at the same concentration of 0.05% (v/v) as the volume used for the treatment of the compounds above. Each cell line was cultured for 72 hours. To investigate the cell viability, the MTS and PMS (phenazine methosulfate) mixture provided in CellTiter 96® AQuous Non-Radioactive Cell Proliferation Assay Kit (Promega) was added to each cell culture medium, followed by additional culture at 37° C. for 2 hours. Then, OD450 was measured. Based on OD of the solvent control cells not treated with any compounds of the present invention, the cell proliferation inhibition rate was calculated according to the treatment concentration of each compound. At this time, the concentration of each compound that was able to inhibit cancer cell proliferation up to 50% was determined as IC50 (uM). IC50 of each compound was determined with three data sets and calculated by using Prism softwater (version 6.01, GraphPad).
(Formazan colour is commonly taken as a measure of viable cells.)

Test [5] relates to MDA-MB-231. In words: Real time cell proliferation, IncuCyte ZOOM, 72 hours. The conditions noted are these: Homo sapiens, MDA-MB-231, 72 h.
Test [6] has as its system A375. In words: Cancer cell proliferation inhibition, CCK-8, 72 hours. The note with it: Homo sapiens, A-375, 72 h. Here is the method:
as §1, §2, §3

The test system of test [7] is RET (LC2/ad-CDC6). In words: Cancer cell proliferation inhibition, MTS assay, 72 hours. The note with it: 72 h. Here is the method: as §1, §4

pIC50: −log10 of the molar value. Where only a bound is given, the exact number is not on record here.

Consider `COCCn1cc(Nc2cccn3c(C#Cc4cc(C(=O)Nc5cccc(C(F)(F)F)c5)ccc4C)cnc23)cn1` [Example 70], for which the pIC50 is above 8.82 in test [1], 7.91 in test [3], 6.07 in test [4] and 5.94 in test [5]. For the same compound, in test [2], the GI50 stood at 0.0261 µM.
`Cc1ccc(C(=O)Nc2ccc3cccnc3c2)cc1C#Cc1cnc2c(Nc3cnn(C)c3)cccn12` [Example 36, 4-methyl-3-((8-((1-methyl-1H-pyrazol-4-yl)amino)imidazo[1,2-a]pyridin-3-yl)ethynyl)-N-(quinolin-7-yl)benzamide]: the negative-log IC50 (pIC50) in test [1] is 8.22; in test [6], below 5.00; in test [3], 8.11; in test [4], 6.84; in test [5], below 5.00. In addition, the GI50 in test [2] was above 10 µM.
Turning to `Cc1ccc(C(=O)Nc2ccc(CN3CCN(C)CC3)c(C(F)(F)F)c2)cc1C#Cc1cnc2c(Nc3cccc(C(C)(C)O)n3)cccn12` [Example 64, 3-((8-(6-(2-hydroxypropan-2-yl)pyridin-2-yl)aminoimidazo[1,2-a]pyridin-3-yl)ethynyl)-4-methyl-N-(4-((4-methylpiperazin-1-yl)methyl)-3-(trifluoromethyl)phenyl)benzamide], the negative-log IC50 (pIC50) in test [1] is 8.52; in test [6], 6.13; in test [3], 6.89; in test [7] it was below 8.00; in test [5], 6.01. Further, the GI50 in test [2] came to 0.075 µM.
Regarding `COCCCn1cc(Nc2cccn3c(C#Cc4cc(C(=O)Nc5ccc(CN6CCC(N(C)C)C6)c(C(F)(F)F)c5)ccc4C)cnc23)cn1` (stereo not shown) [Example 43, N-(4-((3-(dimethylamino)pyrrolidin-1-yl)methyl)-3-(trifluoromethyl)phenyl)-3-((8-((1-(3-methoxypropyl)-1H-pyrazol-4-yl)amino)imidazo[1,2-a]pyridin-3-yl)ethynyl)-4-methylbenzamide], the pIC50 was 7.80 in test [1]; 6.47 in test [6]; below 8.00 in test [7]; 7.01 in test [4]; 6.72 in test [5]. In addition, the GI50 in test [2] is 0.0597 µM.
`Cc1ccc(C(=O)Nc2cccc(C(F)(F)F)c2)cc1C#Cc1cnc2c(Nc3cnn(CCN(C)C)c3)cccn12` [Example 74]: the pIC50 in test [1] is above 8.82; in test [3], 7.67; in test [5], 5.95. The GI50 in test [2] is 0.0931 µM.
With `Cc1ccc(C(=O)Nc2cccc(C(F)(F)F)c2)cc1C#Cc1cnc2c(Nc3cc4n(n3)CCNC4)cccn12` [Example 67, 4-methyl-3-((8-((4,5,6,7-tetrahydropyrazolo[1,5-a]pyrazin-2-yl)amino)imidazo[1,2-a]pyridin-3-yl)ethynyl)-N-(3-(trifluoromethyl)phenyl)benzamide], the negative logarithm of the IC50 (pIC50) in test [1] was above 8.82; in test [3] it was 7.71; in test [4] it was 6.04; in test [5], 6.37. Moreover, in test [2], the GI50 came to 0.0401 µM.
With `COCCCn1cc(Nc2cccn3c(C#Cc4cc(C(=O)Nc5ccc(CN6CCN(C)CC6)c(C(F)(F)F)c5)ccc4C)cnc23)cn1` [Example 65], the pIC50 is above 8.82 in test [1]; 6.66 in test [6]; below 8.00 in test [7]; 7.48 in test [4]; 6.66 in test [5].
Regarding `Cc1ccc(C(=O)Nc2ccc(Cl)c(C(F)(F)F)c2)cc1C#Cc1cnc2c(Nc3cnn(C4CCNCC4)c3)cccn12` [Example 63, N-(4-chloro-3-(trifluoromethyl)phenyl)-4-methyl-3-((8-((1-(piperidin-4-yl)-1H-pyrazol-4-yl)amino)imidazo[1,2-a]pyridin-3-yl)ethynyl)benzamide], the negative logarithm of the IC50 (pIC50) in test [1] was above 9.00; in test [6], 5.87; in test [3], 7.15; in test [7], below 8.00; in test [5] it was 5.85. Further, the GI50 in test [2] is 0.374 µM.
On to `Cc1ccc(C(=O)Nc2ccc(CN3CCN(C)CC3)c(C(F)(F)F)c2)cc1C#Cc1cnc2c(Nc3cc4n(n3)CCNC4)cccn12` [Example 66, 4-methyl-N-(4-((4-methylpiperazin-1-yl)methyl)-3-(trifluoromethyl)phenyl)-3-((8-((4,5,6,7-tetrahydropyrazolo[1,5-a]pyrazin-2-yl)amino)imidazo[1,2-a]pyridin-3-yl)ethynyl)benzamide], for which the negative-log IC50 (pIC50) in test [1] is above 8.82; in test [3] it was 7.20; in test [5] it was 6.41. Besides, the GI50 in test [2] was found to be 0.17 µM.
On to `COCCCn1cc(Nc2cccn3c(C#Cc4cc(C(=O)Nc5ccc(CN6CCN(C)[C@H](C)C6)c(C(F)(F)F)c5)ccc4C)cnc23)cn1` [Example 42, (R)—N-(4-((3,4-dimethylpiperazin-1-yl)methyl)-3-(trifluoromethyl)phenyl)-3-((8-((1-(3-methoxypropyl)-1H-pyrazol-4-yl)amino)imidazo[1,2-a]pyridin-3-yl)ethynyl)-4-methylbenzamide], for which the pIC50 in test [1] was 8.10; in test [6], 6.79; in test [7] it was below 8.00; in test [4] it was 7.00; in test [5], 6.49. The GI50 in test [2] worked out at 0.122 µM.
On to `Cc1ccc(NC(=O)Nc2cc(C(C)(C)C(F)(F)F)on2)cc1C#Cc1cnc2c(Nc3cnn(C(C)C)c3)cccn12` [Example 85, 1-(3-((8-((1-isopropyl-1H-pyrazol-4-yl)amino)imidazo[1,2-a]pyridin-3-yl)ethynyl)-4-methylphenyl)-3-(5-(1,1,1-trifluoro-2-methylpropan-2-yl)isoxazol-3-yl)urea], for which the pIC50 in test [1] was 6.54; in test [6], below 5.00; in test [7], below 8.00; in test [5] it was below 5.00. In addition, the GI50 in test [2] came to 3.08 µM.
Take `COCCn1cc(Nc2cccn3c(C#Cc4cc(C(=O)Nc5ccc(CN6CCN(C)[C@H](C)C6)c(C(F)(F)F)c5)ccc4C)cnc23)cn1` [Example 40, (R)—N-(4-((3,4-dimethylpiperazin-1-yl)methyl)-3-(trifluoromethyl)phenyl)-3-((8-((1-(2-methoxyethyl)-1H-pyrazol-4-yl)amino)imidazo[1,2-a]pyridin-3-yl)ethynyl)-4-methylbenzamide]: the pIC50 in test [1] is 8.10; in test [6], 7.01; in test [7], 8.00; in test [4] it was 7.00; in test [5], 6.64. The GI50 in test [2] is 0.0335 µM.

These data come from patent publication US10870647B2, “Imidazopyridine derivative, method for preparing same, and pharmaceutical composition containing same as active ingredient for preventing or treating cancer” (DAEGU-GYEONGBUK MEDICAL INNOVATION FOUNDATION, priority 2016, dated 2020).
